In the NIST ThermoML archive (doi:10.1016/j.fluid.2017.03.011):

Legend:
[1] = refractive index (Na D-line) (dimensionless); an = ratio of the nth substance listed; settings: 101 kPa, Liquid, Standard Abbe refractometry, a2 = 3
[2] = an = ratio of the nth substance listed; settings: 101 kPa, Liquid, a2 = 3; for electrical conductivity: Alternating current cell with electrodes; for speed of sound: Sing-around technique in a fixed-path interferometer; for mass density: Vibrating tube method; for viscosity: Falling or rolling sphere viscometry

CCC[N+](CCC)(CCC)Cc1ccccc1.[Cl-] [benzyltripropylammonium chloride] + CC(O)C(=O)O
Settings	electrical conductivity, [2] [S/m]	mass density, [2] [kg/m3]	refractive index, [1]	speed of sound, [2] [m/s]	viscosity, [2] [mPa·s]
293.15 K	0.0011	1120.61	1.4944	1658.2	–
298.15 K	0.0018	1117.05	1.4926	1640.8	–
303.15 K	0.003	1113.49	1.4908	1624.7	2276.7
308.15 K	0.0047	1109.92	1.4892	1607.9	1288.3
313.15 K	0.0071	1106.36	1.4876	1592.5	780.5
318.15 K	0.0103	1102.71	1.4858	1577.6	489.2
323.15 K	0.0146	1099.19	1.4844	1563.7	319
328.15 K	0.0201	1095.66	1.4824	1550.1	215.6
333.15 K	0.0267	1092.1	1.4811	1537.3	150.6
338.15 K	0.035	1088.54	1.4791	1525.1	108.5
343.15 K	0.0443	1084.99	1.4778	1513.6	81.3

CCC[N+](CCC)(CCC)Cc1ccccc1.[Cl-] [benzyltripropylammonium chloride] + OCCO
Settings	electrical conductivity, [2] [S/m]	mass density, [2] [kg/m3]	refractive index, [1]	speed of sound, [2] [m/s]	viscosity, [2] [mPa·s]
293.15 K	0.0734	1063.63	1.4981	1762.4	327.9
298.15 K	0.0883	1060.58	1.4965	1746.5	229.2
303.15 K	0.105	1057.52	1.4952	1731	164.6
308.15 K	0.125	1054.44	1.4939	1715.9	121
313.15 K	0.146	1051.35	1.4924	1701.1	90.8
318.15 K	0.17	1048.27	1.4911	1686.4	70.6
323.15 K	0.2	1045.19	1.4895	1671.9	54.4
328.15 K	0.228	1042.11	1.4879	1657.5	42.1
333.15 K	0.26	1039.03	1.4864	1643.3	33.5
338.15 K	0.292	1035.95	1.4849	1629.2	27
343.15 K	0.328	1032.88	1.4831	1615.7	22.2

CCC[N+](CCC)(CCC)Cc1ccccc1.[Cl-] [benzyltripropylammonium chloride] + OCC(O)CO
Settings	electrical conductivity, [2] [S/m]	mass density, [2] [kg/m3]	refractive index, [1]	speed of sound, [2] [m/s]	viscosity, [2] [mPa·s]
293.15 K	0.0058	1133.02	1.5051	1898.3	–
298.15 K	0.0085	1129.97	1.5036	1868.9	–
303.15 K	0.0117	1126.92	1.5026	1844.9	1890.5
308.15 K	0.016	1123.81	1.5011	1824.4	1179.6
313.15 K	0.022	1120.62	1.4999	1806.5	779.8
318.15 K	0.0289	1117.51	1.4982	1790.1	519.3
323.15 K	0.0374	1114.45	1.4966	1774.7	359.2
328.15 K	0.048	1111.39	1.4953	1760.1	251.6
333.15 K	0.0596	1108.32	1.4936	1745.9	180.1
338.15 K	0.0741	1105.24	1.4922	1732.2	131.4
343.15 K	0.0894	1102.17	1.4908	1719.2	97

CCC[N+](CCC)(CCC)Cc1ccccc1.[Cl-] [benzyltripropylammonium chloride] + Oc1ccccc1
Settings	electrical conductivity, [2] [S/m]	mass density, [2] [kg/m3]	refractive index, [1]	speed of sound, [2] [m/s]	viscosity, [2] [mPa·s]
293.15 K	0.0213	1060.26	1.5486	1699.7	638.4
298.15 K	0.0295	1056.98	1.5471	1679.8	381.5
303.15 K	0.0397	1053.73	1.5452	1661.7	237.1
308.15 K	0.0523	1050.47	1.5436	1644.5	156.7
313.15 K	0.0669	1047.19	1.542	1628	107
318.15 K	0.0838	1043.91	1.5403	1611.9	76.8
323.15 K	0.0999	1040.64	1.5386	1596.2	57.6
328.15 K	0.118	1037.37	1.5369	1580.7	43.1
333.15 K	0.138	1034.12	1.5352	1565.5	32.6
338.15 K	0.162	1030.87	1.5334	1550.5	25.8
343.15 K	0.183	1027.64	1.5317	1536.1	20.4
